From PubChem BioAssay AID1963974 (Molecular Pharmacology Branch, DTP, NCI, 2024)

Test system: 648629-189-R-J1-PDC spheroids with HUVEC/MSC, viability
Test: Anticancer human tumor 648629-189-R-J1-PDC patient-derived bladder carcinoma cell line growth inhibition [PI3K]
Conditions: for IC50: curve of first compound; for viability, T/C: stronger effect = lower value
How it was run: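 Multi-cell spheroids combine tumor cells with HUVEC and human MSCs, treated with targeted agents alone or with inavolisib, alpelisib, duvelisib or copanlisib. Concentrations fall in half-log steps from at or near clinical Cmax, or from 10 microM where Cmax is unknown; viability read-out.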

[1] = second compound 0.0316 µM, first compound 0.0316 µM
[2] = second compound 0.0316 µM, first compound 0.1 µM
[3] = second compound 0.0316 µM, first compound 0.316 µM
[4] = second compound 0.0316 µM, first compound 1 µM
[5] = second compound 0.0316 µM, first compound 3.16 µM
[6] = second compound 0.0316 µM, first compound 10 µM
[7] = second compound 0.1 µM, first compound 0.0316 µM
[8] = second compound 0.1 µM, first compound 0.1 µM
[9] = second compound 0.1 µM, first compound 0.316 µM
[10] = second compound 0.1 µM, first compound 1 µM
[11] = second compound 0.1 µM, first compound 3.16 µM
[12] = second compound 0.1 µM, first compound 10 µM
[13] = second compound 0.316 µM, first compound 0.0316 µM
[14] = second compound 0.316 µM, first compound 0.1 µM
[15] = second compound 0.316 µM, first compound 0.316 µM
[16] = second compound 0.316 µM, first compound 1 µM
[17] = second compound 0.316 µM, first compound 3.16 µM
[18] = second compound 0.316 µM, first compound 10 µM
[19] = second compound 1 µM, first compound 0.0316 µM
[20] = second compound 1 µM, first compound 0.1 µM
[21] = second compound 1 µM, first compound 0.316 µM
[22] = second compound 1 µM, first compound 1 µM
[23] = second compound 1 µM, first compound 3.16 µM
[24] = second compound 1 µM, first compound 10 µM
[25] = second compound 3.16 µM, first compound 0.0316 µM
[26] = second compound 3.16 µM, first compound 0.1 µM
[27] = second compound 3.16 µM, first compound 0.316 µM
[28] = second compound 3.16 µM, first compound 1 µM
[29] = second compound 3.16 µM, first compound 3.16 µM
[30] = second compound 3.16 µM, first compound 10 µM
[31] = second compound 10 µM, first compound 0.0316 µM
[32] = second compound 10 µM, first compound 0.1 µM
[33] = second compound 10 µM, first compound 0.316 µM
[34] = second compound 10 µM, first compound 1 µM
[35] = second compound 10 µM, first compound 3.16 µM
[36] = second compound 10 µM, first compound 10 µM
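Also: spheroids exposed to agents for seven days before reading.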
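For viability, T/C in this document: percent of vehicle control luminescence where 100% = DMSO treated spheroids.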

## C#Cc1c(F)ccc2cc(O)cc(-c3ncc4c(N5CC6CCC(C5)N6)nc(OCC56CCCN5CC(F)C6)nc4c3F)c12 (stereo not given) + Cc1nc(NC(=O)N2CCCC2C(N)=O)sc1-c1ccnc(C(C)(C)C(F)(F)F)c1
Second compound 0.0316 µM
  IC50: > 10 µM
Second compound 0.1 µM
  IC50: > 10 µM
Second compound 0.316 µM
  IC50: > 10 µM
Second compound 1 µM
  IC50: > 10 µM
Second compound 3.16 µM
  IC50: > 10 µM
Second compound 10 µM
  IC50: < 0.0316 µM
[1]
  viability, T/C: 100%
[2]
  viability, T/C: 103%
[3]
  viability, T/C: 103%
[4]
  viability, T/C: 99.6%
[5]
  viability, T/C: 89.3%
[6]
  viability, T/C: 91.3%
[7]
  viability, T/C: 101%
[8]
  viability, T/C: 96.8%
[9]
  viability, T/C: 97.5%
[10]
  viability, T/C: 87.4%
[11]
  viability, T/C: 95.1%
[12]
  viability, T/C: 91.4%
[13]
  viability, T/C: 90.7%
[14]
  viability, T/C: 88.1%
[15]
  viability, T/C: 87%
[16]
  viability, T/C: 86.1%
[17]
  viability, T/C: 80.4%
[18]
  viability, T/C: 79.5%
[19]
  viability, T/C: 77.9%
[20]
  viability, T/C: 77.4%
[21]
  viability, T/C: 77%
[22]
  viability, T/C: 72.4%
[23]
  viability, T/C: 68.9%
[24]
  viability, T/C: 70.5%
[25]
  viability, T/C: 52.7%
[26]
  viability, T/C: 56.1%
[27]
  viability, T/C: 55%
[28]
  viability, T/C: 52.7%
[29]
  viability, T/C: 50.6%
[30]
  viability, T/C: 54.9%
[31]
  viability, T/C: 36.3%
[32]
  viability, T/C: 34.2%
[33]
  viability, T/C: 34.5%
[34]
  viability, T/C: 34.5%
[35]
  viability, T/C: 31.2%
[36]
  viability, T/C: 5.29%

## C=CC(=O)N1CCN(c2nc(=O)n(-c3c(C)ccnc3C(C)C)c3nc(-c4c(O)cccc4F)c(F)cc23)C(C)C1 (stereo not given) + Cc1nc(NC(=O)N2CCCC2C(N)=O)sc1-c1ccnc(C(C)(C)C(F)(F)F)c1
Second compound 0.0316 µM
  IC50: > 10 µM
Second compound 0.1 µM
  IC50: > 10 µM
Second compound 0.316 µM
  IC50: > 10 µM
Second compound 1 µM
  IC50: > 10 µM
Second compound 3.16 µM
  IC50: > 10 µM
Second compound 10 µM
  IC50: < 0.0316 µM
[1]
  viability, T/C: 99%
[2]
  viability, T/C: 101%
[3]
  viability, T/C: 107%
[4]
  viability, T/C: 105%
[5]
  viability, T/C: 113%
[6]
  viability, T/C: 82.8%
[7]
  viability, T/C: 92.2%
[8]
  viability, T/C: 102%
[9]
  viability, T/C: 107%
[10]
  viability, T/C: 99%
[11]
  viability, T/C: 106%
[12]
  viability, T/C: 90.3%
[13]
  viability, T/C: 83.5%
[14]
  viability, T/C: 95%
[15]
  viability, T/C: 95.6%
[16]
  viability, T/C: 96.3%
[17]
  viability, T/C: 107%
[18]
  viability, T/C: 84.7%
[19]
  viability, T/C: 73.4%
[20]
  viability, T/C: 82.7%
[21]
  viability, T/C: 87.5%
[22]
  viability, T/C: 86.5%
[23]
  viability, T/C: 88.2%
[24]
  viability, T/C: 79.7%
[25]
  viability, T/C: 61.2%
[26]
  viability, T/C: 57.5%
[27]
  viability, T/C: 65%
[28]
  viability, T/C: 72%
[29]
  viability, T/C: 72.5%
[30]
  viability, T/C: 70.8%
[31]
  viability, T/C: 39.5%
[32]
  viability, T/C: 40.7%
[33]
  viability, T/C: 42.4%
[34]
  viability, T/C: 41.5%
[35]
  viability, T/C: 47.1%
[36]
  viability, T/C: 38.4%

## CC(Cn1ccc(-c2ccc(C#N)c(Cl)c2)n1)NC(=O)c1cc(C(C)O)[nH]n1 (stereo not given) + Cc1nc(NC(=O)N2CCCC2C(N)=O)sc1-c1ccnc(C(C)(C)C(F)(F)F)c1
Second compound 0.0316 µM
  IC50: > 10 µM
Second compound 0.1 µM
  IC50: > 10 µM
Second compound 0.316 µM
  IC50: > 10 µM
Second compound 1 µM
  IC50: > 10 µM
Second compound 3.16 µM
  IC50: > 10 µM
Second compound 10 µM
  IC50: < 0.0316 µM
[1]
  viability, T/C: 86.5%
[2]
  viability, T/C: 95.8%
[3]
  viability, T/C: 95.9%
[4]
  viability, T/C: 87.5%
[5]
  viability, T/C: 82.8%
[6]
  viability, T/C: 67.1%
[7]
  viability, T/C: 92.4%
[8]
  viability, T/C: 91.8%
[9]
  viability, T/C: 87.7%
[10]
  viability, T/C: 89.6%
[11]
  viability, T/C: 77.7%
[12]
  viability, T/C: 66.2%
[13]
  viability, T/C: 91.5%
[14]
  viability, T/C: 84.6%
[15]
  viability, T/C: 87.3%
[16]
  viability, T/C: 81.5%
[17]
  viability, T/C: 78.1%
[18]
  viability, T/C: 68.2%
[19]
  viability, T/C: 70.8%
[20]
  viability, T/C: 74.2%
[21]
  viability, T/C: 68.1%
[22]
  viability, T/C: 69.9%
[23]
  viability, T/C: 63.9%
[24]
  viability, T/C: 62.3%
[25]
  viability, T/C: 53.1%
[26]
  viability, T/C: 54.6%
[27]
  viability, T/C: 47.4%
[28]
  viability, T/C: 51.5%
[29]
  viability, T/C: 57.1%
[30]
  viability, T/C: 52.6%
[31]
  viability, T/C: 38.5%
[32]
  viability, T/C: 38.6%
[33]
  viability, T/C: 35.4%
[34]
  viability, T/C: 40.4%
[35]
  viability, T/C: 36.9%
[36]
  viability, T/C: 37.4%

## CC1(C)CCC(Nc2ncc(C(F)(F)F)c(-c3c[nH]c4c(P(C)(C)=O)c(C#N)ccc34)n2)CN1 (stereo not given) + Cc1nc(NC(=O)N2CCCC2C(N)=O)sc1-c1ccnc(C(C)(C)C(F)(F)F)c1
Second compound 0.0316 µM
  IC50: < 0.0316 µM
Second compound 0.1 µM
  IC50: < 0.0316 µM
Second compound 0.316 µM
  IC50: < 0.0316 µM
Second compound 1 µM
  IC50: < 0.0316 µM
Second compound 3.16 µM
  IC50: < 0.0316 µM
Second compound 10 µM
  IC50: < 0.0316 µM
[1]
  viability, T/C: 29.4%
[2]
  viability, T/C: 27.6%
[3]
  viability, T/C: 25.6%
[4]
  viability, T/C: 33.7%
[5]
  viability, T/C: 40.7%
[6]
  viability, T/C: 5.12%
[7]
  viability, T/C: 24.7%
[8]
  viability, T/C: 27.4%
[9]
  viability, T/C: 29.3%
[10]
  viability, T/C: 38.2%
[11]
  viability, T/C: 40.9%
[12]
  viability, T/C: 4.14%
[13]
  viability, T/C: 27.6%
[14]
  viability, T/C: 24.7%
[15]
  viability, T/C: 30.5%
[16]
  viability, T/C: 27.9%
[17]
  viability, T/C: 36.4%
[18]
  viability, T/C: 4.18%
[19]
  viability, T/C: 26.8%
[20]
  viability, T/C: 23.9%
[21]
  viability, T/C: 26%
[22]
  viability, T/C: 27.4%
[23]
  viability, T/C: 27.4%
[24]
  viability, T/C: 2.87%
[25]
  viability, T/C: 26%
[26]
  viability, T/C: 23.1%
[27]
  viability, T/C: 21%
[28]
  viability, T/C: 22.2%
[29]
  viability, T/C: 24.7%
[30]
  viability, T/C: 1.62%
[31]
  viability, T/C: 21.5%
[32]
  viability, T/C: 17.1%
[33]
  viability, T/C: 18.1%
[34]
  viability, T/C: 16.6%
[35]
  viability, T/C: 15.5%
[36]
  viability, T/C: 0.41%

## Cn1nccc1Nc1nccc(-c2ccn(C(CO)c3ccc(Cl)c(F)c3)c(=O)c2)n1 (stereo not given) + Cc1nc(NC(=O)N2CCCC2C(N)=O)sc1-c1ccnc(C(C)(C)C(F)(F)F)c1
Second compound 0.0316 µM
  IC50: > 10 µM
Second compound 0.1 µM
  IC50: > 10 µM
Second compound 0.316 µM
  IC50: > 10 µM
Second compound 1 µM
  IC50: > 10 µM
Second compound 3.16 µM
  IC50: > 10 µM
Second compound 10 µM
  IC50: < 0.0316 µM
[1]
  viability, T/C: 120%
[2]
  viability, T/C: 96.2%
[3]
  viability, T/C: 112%
[4]
  viability, T/C: 112%
[5]
  viability, T/C: 111%
[6]
  viability, T/C: 74.7%
[7]
  viability, T/C: 93.5%
[8]
  viability, T/C: 105%
[9]
  viability, T/C: 108%
[10]
  viability, T/C: 104%
[11]
  viability, T/C: 96.1%
[12]
  viability, T/C: 79.2%
[13]
  viability, T/C: 94.3%
[14]
  viability, T/C: 97.6%
[15]
  viability, T/C: 98.1%
[16]
  viability, T/C: 102%
[17]
  viability, T/C: 92.8%
[18]
  viability, T/C: 75.4%
[19]
  viability, T/C: 83.3%
[20]
  viability, T/C: 79.4%
[21]
  viability, T/C: 72.8%
[22]
  viability, T/C: 85.7%
[23]
  viability, T/C: 82.2%
[24]
  viability, T/C: 70.6%
[25]
  viability, T/C: 64.4%
[26]
  viability, T/C: 63.1%
[27]
  viability, T/C: 56.8%
[28]
  viability, T/C: 72.1%
[29]
  viability, T/C: 67.1%
[30]
  viability, T/C: 67.1%
[31]
  viability, T/C: 40.2%
[32]
  viability, T/C: 39.5%
[33]
  viability, T/C: 41.5%
[34]
  viability, T/C: 45.5%
[35]
  viability, T/C: 54.9%
[36]
  viability, T/C: 55.1%
